In patent US10111893B2, “Calmangafodipir, a new chemical entity, and other mixed metal complexes, methods of preparation, compositions, and methods of treatment” (priority 2012, dated 2018):
Like-named read-outs stand apart in the source and are kept apart here.

What was measured:
[1] = system: CT26 (mouse colon carcinoma) cells; assay: MTT viability assay, cytotoxic activity; settings: 48 h, 1-1,000 μM
Protocol: The viability of cells was measured using the MTT assay. […] The viability of the cells was then assessed by adding 5 mg/ml methylthiazoletetrazolium (MTT) to a final concentration of 0.5 mg/ml and incubating cells for a further 4 h at 37° C. The blue formazan that is formed by mitochondrial dehydrogenases of viable cells was then dissolved over night at 37° C. by adding 10% SDS and 10 mM HCl to a final concentration of 5% SDS and 5 mM HCl. Finally, the absorbance of the solution was read at 570 nm with a reference at 670 nm in a microplate reader Spectramax 340 (Molecular Devices, Sunnyvale, Calif., USA) connected to an Apple Macintosh computer running the program Softmax Pro V1.2.0 (Molecular Devices, Sunnyvale, Calif., USA).

pig heart = settings: pigs; cited from earlier work
[2] = cited from earlier work
human U1810 NSCLC cells = assay: MTT viability assay, cytotoxic activity; type: cell-based; settings: for IC50: 48 h, MTT, read-out: IC50 (concentration causing 50% inhibition of viability)
Protocol: (§1) The viability of U1810 or LLC1 cells in the presence of increasing concentrations of calmangafodipir or mangafodipir is presented as concentration response curves (mean±S.D.). The individual curves were fitted to the sigmoidal variable slope response logistic equation (Graphpad Prism, version 5.02). From this analysis the concentrations causing 50% inhibition (IC50) of the test substances were calculated.

[3] = humans, diagnostic MR imaging dose iv; cited from earlier work
[4] = one patient, cited from earlier work
[5] = rats; cited from earlier work
[6] = rats, single 5 μmol/kg b.w., cited from earlier work
[7] = Manganese urine excretion 0-24 h after intravenous injection; settings: rats; for Mn recovered in 0-24 h urine: iv 0.25 ml, 2.59 μmol Mn (mangafodipir) or 2.52 μmol Mn (calmangafodipir) injected; for Mn in 0-24 h urine as percentage of the injected dose: iv, basal excretion subtracted
Protocol: To obtain basal content of manganese (Mn) and zinc (Zn) in urine, two additional (control) rats received 0.25 ml saline and were placed in metabolic cages for urine collection over the same period of time. The urine samples were then stored at −80° C. until Mn analysis. Before analysis, the samples were thawed and extensively shaken to obtain homogenous samples. A five ml aliquot was taken from each sample and 5 ml concentrated nitric acid was added. The samples were then resolved in a microwave oven and thereafter diluted with distilled water to a final volume of 50 ml. The Mn content of each sample was analyzed by ICP-MS (Inductively Coupled Plasma Mass Spectrometry). Identical samples of calmangafodipir and mangafodipir as those injected in the rats (i.e., 0.25 ml) were withdrawn and injected into test tubes. These samples were treated in an identical manner to that of the urine samples and analyzed for their Mn content. Results are presented as total 0-24 h urine Mn content (expressed as μmol/kg±S.E.M.) and as percentage (±S.E.M.) of the injected dose. […] A p-value lower than 0.05 was considered as a statistically significant difference.

white blood cells (WBC) = assay: Myelosuppressive effects of oxaliplatin in balb/c mice, cytoprotection
Protocol: One day before (baseline) as well as 3 and 6 days after oxaliplatin treatment 50 μl EDTA blood samples were taken from the orbital venous plexus with a glass capillary. The blood samples were analyzed using the automated system CELL-DYN® Emerald (Abbott Diagnostics) for the content of white blood cells (WBC), lymphocytes (LYM), neutrophils (NEU) and platelets (PLC). […] A control group received instead of oxaliplatin vehicle (5% glucose) and saline. […] The statistical differences between treatment groups, where appropriate, were tested by an unpaired Student's t-test. A p-value lower than 0.05 was considered as a statistically significant difference.

[8] = Mn content of brain, pancreas and liver after repeated intravenous injections; settings: rats, 39 iv doses, 72 μmol/kg manganese each, 3 times a week for 13 weeks
Protocol: After the 13-week administration period, the rats were sacrificed and the brains and pancreas were dissected out and approximately 0.5 g samples were stored frozen until Mn analysis. The Mn content of each sample was analyzed by ICP-MS. Results are expressed as μg/g wet weight±S.E.M. Statistical difference between the mangafodipir group and the calmangafodipir group, with respect to Mn content, was tested by a paired Student's t-test. A p-value lower than 0.05 was considered as a statistically significant difference.

CT26 tumors [9] = assay: Antitumor activity of oxaliplatin with or without calmangafodipir in CT26-bearing mice; type: in vivo, balb/c mice
Protocol: When the cells reached ˜50% confluency they were harvested by trypsinization. Briefly, cells were washed with phosphate based saline (PBS) (pH 7.3) and exposed to 0.05% Trypsin/0.53 mM EDTA at 37° C. for ˜5 min. The trypsinization was stopped by adding RPMI1640 culture medium. Cells were counted and centrifuged at 200×g for 5 min. Thereafter, they were washed in PBS, centrifuged again and resuspended in PBS at a concentration of 2×10^6/350 μl for injection into mice. Balb/c female mice between 6 and 8 weeks of age were used, as described by Laurent et al., 2005. Briefly, each mouse was injected subcutaneously in the back of the neck with 2×10^6 of CT26 cells at day 0. After 7 days (day 7) when the tumors were detectable, the tumor size was determined with a caliper and mice were grouped (5 in each group) so that the sizes of the tumors were not statistically different by group. Oxaliplatin±calmangafodipir (lot #11AK0105B) was injected and one group of mice received vehicle (0.9% saline+5% glucose) treatment alone. In a first series of experiments, mice were injected i.v. with saline or 50 mg/kg calmangafodipir 30 minutes prior to i.p. administration of 20 mg/kg oxaliplatin (diluted in 5% glucose) or 5% glucose. These mice received in addition saline or 50mg/kg calmangafodipir 24 hours later (day 8). In another series of experiments, mice were injected i.v. with saline or 5 mg/kg calmangafodipir 30 minutes […] (diluted in 5% glucose) or 5% glucose, and saline or 5 mg/kg calmangafodipir 24 hours later (day 8). The mice were killed on day 10 and the tumors were excised and wet weights were determined.

[10] = Variable humidity XRPD analysis of crystalline forms; type: physicochemical; settings: 10 mg scale, change of ambient humidity
Source text: X-Ray Powder Diffraction (XRPD) is most widely used in the identification and characterization of crystalline solids, each of which produces a distinctive diffraction pattern. Both the positions (corresponding to lattice spacings) and the relative intensity of the lines are indicative of a particular phase and material, providing a “fingerprint” for comparison.

[11] = Exposure of solids at 25° C./60% RH and 40° C./75% RH (water absorption); type: physicochemical; settings: 7 days at 25° C./60% RH and 40° C./75% RH
Protocol: Furthermore, the preparation of a single active pharmaceutical ingredient reduces the cost of manufacture of a treatment dosage. In addition, the need for dosing of a single material reduces the chance for errors in the formulation of the product.
In a 4:1 ratio approximately 200 mg of calfodipir (CaDPDP) and 50 mg of mangafodipir (MnDPDP) were weighed into a 40 mL vial and dissolved in 40 mL of DI water at room temperature to generate a yellow solution. The yellow aqueous solution was spray dried using a Buchi Mini-Spray Dryer B-290 while attached to the Buchi dehumidifier B-296 as an air conditioner allowing the intake of air from the laboratory. Spray drying optimization experiments were performed at elevated inlet temperatures (220° C.) with varying feed rates (20, 30, 40, 50 and 60%). Recovery of product ranged from 180-230 mg.

[12] = system: white blood cells (WBC), lymphocytes (LYM), neutrophils (NEU); assay: Myelosuppressive effects of carboplatin in balb/c mice, cytoprotection; type: in vivo
Source text: A control group received vehicle (saline) and saline instead of carboplatin.

CT26 tumors [13] = assay: Antitumor activity of oxaliplatin with or without calmangafodipir in CT26-bearing immune competent and nude balb/c mice; type: in vivo; settings: 5 mg/kg calmangafodipir with 10 mg/kg oxaliplatin
Protocol: When the cells reached ˜50% confluency they were harvested by trypsinization. Briefly, cells were washed with PBS (pH 7.3) and exposed to 0.05% Trypsin/0.53 mM EDTA at 37° C. for ˜5 min. The trypsinization was stopped by adding RPMI 1640 culture medium. Cells were counted and centrifuged at 200×g for 5 min. Thereafter, they were washed in PBS, centrifuged again and resuspended in PBS at a concentration of 2×10^6/350 μl for injection into mice. Immune competent balb/c female mice (balb/c) and immune incompetent nude female balb/c mice (blab/c nu/nu) between 6 and 8 weeks of age were used, as described by Laurent et al., 2005. Briefly, each mouse was injected subcutaneously in the back of the neck with 2×10^6 of CT26 cells at day 0. After 7 days (day 7) when the tumors were detectable, the tumor size was determined with a caliper and mice were grouped (5 in each group) so that the sizes of the tumors were not statistically different by group. Groups of mice (5 in each group, as illustrated in FIG. 14) were injected i.v. with saline or 5 mg/kg calmangafodipir (lot #11AK0105B) 30 minutes prior to i.p. administration of 10 mg/kg oxaliplatin (diluted in 5% glucose) or 5% glucose. Mice received in addition saline or 5 mg/kg calmangafodipir 24 hours later (day 8). The mice were sacrificed on day 10 and the tumors were excised and wet weights were determined. The results are presented in a graph for the various treatments (mean±S.E.M.).

LLC1 NSCLC cells = assay: MTT viability assay, cytotoxic activity; type: cell-based, murine; settings: 48 h
Protocol: as §1

SMILES: Cc1ncc(CO)c(CN(CCN(CC(=O)O)Cc2c(CO)cnc(C)c2O)CC(=O)O)c1O [MnPLED, N,N′-dipyridoxyl ethylenediamine-N,N′-diacetic acid]
- cytotoxic activity relative to mangafodipir [1]: ~10 times
- protection against ischemia-reperfusion-induced myocardial infarction (pig heart): significantly reduced myocardial infarct size

SMILES: Cc1ncc(COP(=O)(O)O)c(CN(CCN(CC(=O)O)Cc2c(COP(=O)(O)O)cnc(C)c2O)CC(=O)O)c1O [fodipir, N,N′-bis-(pyridoxal-5-phosphate)-ethylenediamine-N,N′-diacetic acid]
- cytotoxic activity relative to mangafodipir [1]: about 20 times
- affinity of zinc relative to manganese for the chelator ([2]; higher affinity of zinc): about 1000 times
- affinity of calcium relative to manganese for the chelator ([2]; lower affinity of calcium): about 10^6 times
- affinity of calcium relative to zinc for the chelator ([2]; lower affinity of calcium): about 10^9 times

SMILES: Cc1ncc(COP(=O)(O)O)c(CN(CCN(CC(=O)O)Cc2c(COP(=O)(O)O)cnc(C)c2O)CC(=O)O)c1O.[Mn] [mangafodipir, manganese N,N′-bis-(pyridoxal-5-phosphate)-ethylenediamine-N,N′-diacetic acid]
- IC50 (human U1810 NSCLC cells): 633 µM
- administered manganese released [3]: about 80%
- neurotoxic symptoms ([4]; 14 of 15 cycles with mangafodipir pretreatment, accumulated 1275 mg/m^2 oxaliplatin): No neurotoxic symptoms were detected
- neutropenia ([4]; during chemotherapy cycles): Neutropenia did not occur
- fetal skeletal abnormalities [5]: caused fetal skeletal abnormalities in rats
- protection against ischemia-reperfusion-induced myocardial infarction (pig heart): does not protect the pig heart against ischemia-reperfusion-induced myocardial infarction
- Mn content of the pancreas relative to basal value ([6]; after 2 hours): approximately 10 times
- Mn content of the pancreas relative to basal value ([6]; after 24 hours): about 5 times
- Mn recovered in 0-24 h urine [7]: 0.60 ± 0.04 µmol
- Mn in 0-24 h urine as percentage of the injected dose [7]: 23.1±1.4%
- fall in WBC (white blood cells (WBC); 12.5 mg/kg oxaliplatin plus 1 mg/kg mangafodipir iv): around 50%
- fall in WBC (white blood cells (WBC); 12.5 mg/kg oxaliplatin plus 10 mg/kg mangafodipir iv): around 50%
- Mn content in the pancreas [8]: 5.54 ± 0.45 µmol/kg

SMILES: [Ca+2].[Cl-].[Cl-] [CaCl2]
- cytotoxic activity [1]: Neither ZnDPDP, ZnPLED nor CaCl2 displayed any cytotoxic activity at all

SMILES: O=C1[O][Pt]2([NH][C@@H]3CCCC[C@H]3[NH]2)[O]C1=O [oxaliplatin]
- reduction in tumor weight (CT26 tumors [9]; single treatment 20 mg/kg oxaliplatin i.p., day 10): more than 50%
- fall in WBC (white blood cells (WBC); single dose 12.5 mg/kg oxaliplatin alone, 6 days after): more than 80%

SMILES: Cc1ncc(COP(=O)([O-])O)c(CN(CCN(CC(=O)O)Cc2c(COP(=O)([O-])O)cnc(C)c2O)CC(=O)O)c1O.Cc1ncc(COP(=O)([O-])O)c(CN(CCN(CC(=O)O)Cc2c(COP(=O)([O-])O)cnc(C)c2O)CC(=O)O)c1O.Cc1ncc(COP(=O)([O-])O)c(CN(CCN(CC(=O)O)Cc2c(COP(=O)([O-])O)cnc(C)c2O)CC(=O)O)c1O.Cc1ncc(COP(=O)([O-])O)c(CN(CCN(CC(=O)O)Cc2c(COP(=O)([O-])O)cnc(C)c2O)CC(=O)O)c1O.Cc1ncc(COP(=O)([O-])O)c(CN(CCN(CC(=O)O)Cc2c(COP(=O)([O-])O)cnc(C)c2O)CC(=O)O)c1O.[Ca+2].[Ca+2].[Ca+2].[Ca+2].[Mn+2] [calmangafodipir]
- time within which form conversions occur [10]: ≤ 3 h
- appearance of solid after exposure [11]: remained a free flowing solid
- cytotoxic activity relative to mangafodipir [1]: about 20 times
- influence on antitumor effect of oxaliplatin (CT26 tumors [9]; 5 mg/kg calmangafodipir iv with 10 mg/kg oxaliplatin): statistically significant better antitumor effect
- influence on antitumor effect of oxaliplatin (CT26 tumors [9]; 50 mg/kg calmangafodipir iv with 20 mg/kg oxaliplatin): did not have any negative influence on the antitumor effect of oxaliplatin
- effect on carboplatin-induced decreases in WBC, NEU and LYM ([12]; calmangafodipir 3 mg/kg with carboplatin 125 mg/kg): abolished these decreases
- shape of dose-response of myeloprotection ([12]; calmangafodipir 1, 3, 10 or 30 mg/kg with carboplatin 125 mg/kg): bell shaped appearance
- influence on antitumor effect of oxaliplatin (CT26 tumors [13]; immune competent and immune incompetent mice): did not have any negative influence on the antitumor effect of oxaliplatin
- mean tumor weight compared to controls (CT26 tumors [13]; immune competent mice): statistically significantly reduced
- mean tumor weight compared to controls (CT26 tumors [13]; immune deficient mice): no such reduction was seen
- IC50 ratio between mangafodipir and calmangafodipir (potency relative to mangafodipir) (human U1810 NSCLC cells): about 28 times
- IC50 (human U1810 NSCLC cells): 22.7 µM
- potency to kill cells compared with mangafodipir (LLC1 NSCLC cells): significantly more potent than mangafodipir
- Mn recovered in 0-24 h urine [7]: 1.27 ± 0.07 µmol
- Mn in 0-24 h urine as percentage of the injected dose [7]: 50.5±2.6%
- fall in WBC (white blood cells (WBC); 12.5 mg/kg oxaliplatin plus 5 mg/kg calmangafodipir iv 30 min before and 24 h after): about 25%
- Mn brain content [8]: 0.74±0.01 μg/g w.w.
- Mn content in the pancreas [8]: 3.35 ± 0.19 µmol/kg

SMILES: Cc1ncc(CO)c(CN(CCN(CC(=O)[O-])Cc2c(CO)cnc(C)c2O)CC(=O)[O-])c1O.[Zn+2] [ZnPLED]
- cytotoxic activity [1]: Neither ZnDPDP, ZnPLED nor CaCl2 displayed any cytotoxic activity at all
- stability of complex relative to manganese counterpart ([2]; higher stability): 1000 times

SMILES: N.N.O=C([O-])C1(C(=O)[O-])CCC1.[Pt+2] [Carboplatin, carboplatin]
- decrease in WBC, as well as in NEU and LYM ([12]; carboplatin 125 mg/kg alone, 3 days after): approximately 50%
